Measured values as given in patent US5607926A, “Cephalosporin antibiotics” (Microcide Pharmaceuticals, Inc., priority 1995, dated 1997).
In brackets after ≈: the same amount, converted by molar mass. Counter-ions that a name gives are not always drawn. Like-named read-outs stand apart in the source and are kept apart here.

How the values were obtained:
[1] = tested on: S. aureus ATCC 29213; test: In vitro antibacterial evaluation, MIC by agar dilution, S. aureus ATCC 29213; format: cell-based; conditions: Staphylococcus aureus, ATCC29213
Summary of the method: (§1)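 Growth inhibition on Mueller-Hinton agar plates defined the MIC, the lowest compound level stopping visible growth after 16-20 hours at 35°-36° C. Compound was incorporated at two-fold steps from 128 μg/mL to ≤0.25 μg/mL, each tested twice, with about 10^4 cfu spotted per isolate.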

[2] = tested on: S. aureus 76 (Meth^R)(lac^+); test: In vitro antibacterial evaluation, MIC by agar dilution, S. aureus 76; format: cell-based; conditions: Staphylococcus aureus, read-out: MIC
Summary of the method: as §1

[3] = tested on: methicillinsusceptible S. aureus strain ATCC 13709; test: In vivo antibacterial evaluation, murine model for lethal bacteremic peritonitis; design: species or system S. aureus in female Swiss-Webster mice; conditions: Staphylococcus aureus, ATCC13709, sc, 72 h, two equal SC doses at challenge and 2 hours later, mice, probit
Method: Groups of 5 female Swiss-Webster mice (Simonsen, Gilroy, Calif.) each are challenged by the intraperitoneal (IP) route with ten-fold increments of a bacterial inoculum. This permits calculation of the mean lethal dose (LD50) and the LD100. For preliminary evaluation of a new antibiotic, mice are challenged IP with an LD100 titer of bacteria. In two equal doses administered at the time of bacterial challenge and 2 hours later, groups of 10 mice each are treated subcutaneously with two-fold increments of the test drug and an antibiotic of known efficacy in mice and humans (i.e., positive control). Mice are observed for 72 h. Those alive at 72 h are considered long term survivors. The total drug dose in mg/kg that protects 50% of mice in a group from death is termed the mean protective dose (PD50). PD50 s are similarly determined for several pathogens. The quantitative endpoints for the new drug are then compared with those obtained with reference antibiotics.
Six ten-fold dilutions of inoculum suspended in 0.5 mL of sterilized 7% hog gastric mucin (Sigma) are injected IP in groups of 5 mice each. A control group of 5 mice receive mucin alone. Mice are observed for 72 h. Those alive at 72 h are considered long term survivors. The mean lethal dose (LD50) and 100% lethal dose (LD100) are determined by the probit test.
For antibiotic efficacy studies, mice are challenged IP with bacterial titers that will afford an LD100 for the test strain. In two equal doses administered at the time of bacterial challenge and 2 hours later, groups of 10 mice each are treated by the subcutaneous route (SC) with twofold increments of the test antibiotic; another group is treated similarly with a reference antibiotic of known efficacy in animals and man. Drug doses can range from 0.01 to 512 mg/kg. If the drug is poorly soluble, Tween 20 or propylene glycol will be employed to solubilize the drug. Animals are observed for 72 h. The 50% protective dose (PD50) is calculated in mg/kg by the probit method. The PD50 is the same as the 50% effective dose (ED50) and the 50% curative dose (CD50). Samples of blood from the hearts of all animals that die and from half the mice that survive are cultured on brain-heart infusion agar. Animals that received a protective dosage of the test drug will be alive at 72 h, although they may appear moderately ill to very ill during the observation period. […] Most of these mice will die within 6 to 48 h. Those alive at 72 h will be considered long term survivors.
(§2) data reported for challenge with methicillinsusceptible S. aureus strain

[4] = tested on: S. haemolyticus (Meth^R); test: In vitro antibacterial evaluation, MIC by agar dilution, S. haemolyticus; format: cell-based; conditions: Staphylococcus haemolyticus, read-out: MIC
Summary of the method: as §1

[5] = tested on: methicillinsusceptible S. aureus strain ATCC 13709; test: Challenge strain MIC; format: cell-based; conditions: Staphylococcus aureus
Method: The compounds of the invention were evaluated against several β-lactamresistant bacteria strains by determining the minimum inhibitory concentration (MIC, μg/ml) of each compound with respect to each strain. The MIC, the lowest concentration of antibiotic which inhibits growth of the test organism, was determined by the agar dilution method.
To determine the MIC for bacterial isolates, the test compound was incorporated in a series of two-fold dilutions into liquified Mueller-Hinton agar. Upon solidification, a number of different bacterial strains were spot inoculated with a replicating device onto the agar surface. […] The procedures used in these studies have been standardized by the National Committee for Clinical Laboratory Standards (NCCLS), as per the NCCLS publication entitled METHODS FOR DILUTION ANTIMICROBIAL SUSCEPTIBILITY TESTS (1991), which is incorporated herein by reference.
Aliquots of antimicrobial agents were prepared in phosphate buffered saline (PBS) at pH 7.2. Tween 20 or DMSO was used as a solubilizing vehicle as needed. Standard methods of vortexing, sonicating and gentle heat were used to facilitate solubilizing the test agent. Typically, the concentration of the stock solution was 10× that of the highest drug concentration tested. A 1.28 mg/mL stock solution was used with a subsequent highest working concentration of 128 μg/mL. Serial two-fold dilutions were done through ≤0.25 μg/mL. Each drug level was tested in duplicate. Two-fold drug dilutions were done in sterile 50 mL tubes with a final drug volume of 5 mL. Upon the addition of 45 mL of molten agar, a 10-fold dilution resulted. Two, 25 mL. plates were then poured into 15×150 mm square Petri plates with grids and allowed to harden.
A control plate with a reference drug, either cefotaxime, vancomycin or imipenem, was used as the positive growth control. Stock concentrations of reference antibiotics were prepared and frozen at -80° C. Upon preparation, the control plates were sealed and stored in the refrigerator for up to 1 week prior to use; however, imipenem control plates had to be prepared just prior to use. All test plates were used within 24 hours of preparation.
Satisfactory results were obtained where the inoculum contained about 10^4 colony forming units (cfu) ±0.5 logs. Starting with pure cultures of the test isolates on agar plates, a few isolated colonies were transferred to a tube of nutrient broth and allowed to grow 4-6 hours at 35°-36° C. to reach log-phase growth. Dropwise addition of the broth culture to PBS was done to match a 0.5 McFarland turbidity standard equal to 10^8 cfu/mL. This was further diluted ten-fold in PBS to reach a working inoculum concentration of 10^7 cfu/mL. When 1 μL of the working inoculum was applied to the agar surface a concentration of about 10^4 cfu per spot was obtained.
Disposable sterile 1 μL loops were used to inoculate test plates, with each isolate in a designated grid on the agar plate. An alternate method of inoculation involved the use of a replica plater, a device with 48 steel pins allowing the simultaneous inoculation of multiple isolates. After the spots had dried, the plates were incubated at 35°-36° C. for 16-20 hours. Endpoints were assessed as the minimum inhibitory concentration (MIC) of antimicrobial agent.
as §2

[6] = tested on: E. coli ATCC 25922; test: In vitro antibacterial evaluation, MIC by agar dilution, E. coli ATCC 25922; format: cell-based; conditions: Escherichia coli, ATCC25922, read-out: MIC
Summary of the method: as §1

[7] = tested on: E. faecalis ATCC 29212; test: In vitro antibacterial evaluation, MIC by agar dilution, E. faecalis ATCC 29212; format: cell-based; conditions: Enterococcus faecalis, ATCC29212; E. faecalis ATCC 29212; read-out: MIC
Summary of the method: as §1

[8] = tested on: P. aeruginosa ATCC 27853; test: In vitro antibacterial evaluation, MIC by agar dilution, P. aeruginosa ATCC 27853; format: cell-based; conditions: Pseudomonas aeruginosa, ATCC27853, read-out: MIC
Summary of the method: as §1

[9] = tested on: S. aureus Col8A (Meth^S)(lac^-); test: In vitro antibacterial evaluation, MIC by agar dilution, S. aureus Col8A; format: cell-based; conditions: Staphylococcus aureus
Summary of the method: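 Agar dilution per NCCLS (1991): two-fold dilutions from 128 μg/mL down to ≤0.25 μg/mL in Mueller-Hinton agar, each level in duplicate. Spots of about 10^4 cfu of log-phase culture; 16-20 h at 35°-36° C. MIC in μg/ml is the lowest concentration inhibiting growth.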

[10] = tested on: E. faecium ATCC 35667; test: In vitro antibacterial evaluation, MIC by agar dilution, E. faecium ATCC 35667; format: cell-based; conditions: Enterococcus faecium, ATCC35667, read-out: MIC
Summary of the method: as §1

[11] = S. aureus ATCC 29213, read-out: MIC
[12] = ATCC13709, S. aureus ATCC 13709, read-out: Challenge str MIC
[13] = ATCC13709, read-out: Challenge str MIC

| SMILES | MIC [1, 11] [µg/mL] | MIC [2] [µg/mL] | ED50 ([3]; read-out: ED50) [mg/kg] | MIC [4] [µg/mL] | MIC [5, 12] [µg/mL] | MIC [6] [µg/mL] | MIC [7] [µg/mL] | MIC [8] [µg/mL] | MIC [9] [µg/mL] | MIC [10] [µg/mL] | MIC [1] [µg/mL] | MIC [5, 13] [µg/mL] | ED50 [3] [mg/kg] |
| --- | --- | --- | --- | --- | --- | --- | --- | --- | --- | --- | --- | --- | --- |
| Cc1nnc(SCC(=O)N[C@@H]2C(=O)N3C(C(=O)O)=C(Sc4ccnn4-c4ccccc4)CS[C@H]23)s1 [Cmpd 118] | 0.25 (≈ 0.457 µM) | 8 (≈ 14.6 µM) | 3.38 | 32 (≈ 58.5 µM) | 0.06 (≈ 0.11 µM) | > 32 | 4 (≈ 7.32 µM) | > 32 | 0.125 (≈ 0.229 µM) | 4 (≈ 7.32 µM) |  |  |  |
| O=C(CS/C=C\Cl)N[C@@H]1C(=O)N2C(C(=O)O)=C(Sc3ccnn3-c3ccccc3)CS[C@H]12 [Cmpd 131, (7R)-7-[((Z-2-Chlorovinyl)thioacetyl)amino]-3-(1-N-phenylpyrazol-5-ylthio)-3-cephem-4-carboxylic acid] |  | 4 (≈ 7.86 µM) | 1.73 | 32 (≈ 62.9 µM) | 0.06 (≈ 0.118 µM) | > 32 | 0.5 (≈ 0.982 µM) | > 32 |  | 1 (≈ 1.96 µM) |  |  |  |
| O=C(CSc1ccncc1)N[C@@H]1C(=O)N2C(C(=O)O)=C(Sc3ccnn3-c3ccccc3)CS[C@H]12 [Cmpd 110, (7R)-7-[(4-pyridylthioacetyl)amino]-3-(1-N-phenylpyrazol-5-ylthio)-3-cephem-4-carboxylic acid] |  | 8 (≈ 15.2 µM) | 3.45 | > 16 | 0.25 (≈ 0.476 µM) | > 32 | 2 (≈ 3.8 µM) | > 32 | 0.25 (≈ 0.476 µM) | 2 (≈ 3.8 µM) | 0.25 (≈ 0.476 µM) |  |  |
| N#Cc1ncccc1SC1=C(C(=O)O)N2C(=O)[C@@H](NC(=O)Cc3ccccc3)[C@H]2SC1 [Cmpd 102, (7R)-7-[(Phenylacetyl)amino]-3-(2-cyanopyridin-3-ylthio)-3-cephem-4-carboxylic acid] |  | 16 (≈ 35.4 µM) | 1.75 | 32 (≈ 70.7 µM) |  | 32 (≈ 70.7 µM) | 2 (≈ 4.42 µM) | > 32 | 0.125 (≈ 0.276 µM) | 4 (≈ 8.84 µM) | 0.125 (≈ 0.276 µM) | 0.125 (≈ 0.276 µM) |  |
| O=C(Cc1ccccc1)N[C@@H]1C(=O)N2C(C(=O)O)=C(Sc3cccnc3-n3cccn3)CS[C@H]12 [Cmpd 103, (7R)-7-[(Phenylacetyl)amino]-3-(2-(pyrazol-1-yl)pyridin-3-ylthio)-3-cephem-4-carboxylic acid] |  | 8 (≈ 16.2 µM) | 2.67 | 4 (≈ 8.1 µM) | 0.125 (≈ 0.253 µM) | > 32 | 1 (≈ 2.03 µM) | > 32 | 0.25 (≈ 0.507 µM) | 2 (≈ 4.05 µM) | 0.25 (≈ 0.507 µM) |  |  |
| O=C(O)C1=C(Sc2ccnn2-c2ccccc2)CS[C@@H]2[C@H](NC(=O)C3SCCS3)C(=O)N12 [Cmpd 115, (7R)-7-[(2-dithiolanylcarbonyl)amino]-3-(1-N-phenylpyrazol-5-ylthio)-3-cephem-4-carboxylic acid] |  | 8 (≈ 15.8 µM) | 3.04 | 32 (≈ 63.2 µM) | 0.25 (≈ 0.493 µM) | > 32 | 4 (≈ 7.89 µM) | > 32 | 0.25 (≈ 0.493 µM) | 8 (≈ 15.8 µM) | 0.25 (≈ 0.493 µM) |  |  |
| N=C(N)NCCSCC(=O)N[C@@H]1C(=O)N2C(C(=O)O)=C(Sc3ccccc3CSC(=N)N)CS[C@H]12 [Cmpd 137, (7R)-7-[((2-guanidinoethylthio)acetyl)amino]-3-(2-isothiouroniummethylphenylthio)-3-cephem-4-carboxylate, trifluoroacetic acid salt] |  | 4 | 0.75 | 16 | 0.06 | 4 | 0.5 | > 32 | 0.06 | 0.25 |  |  |  |
| CSCC(=O)N[C@@H]1C(=O)N2C(C(=O)O)=C(Sc3ccccc3CSC(=N)N)CS[C@H]12 [Cmpd 127, (7R)-7-[(methylthioacetyl)amino]-3-(2-isothiouroniummethylphenylthio)-3-cephem-4-carboxylate, inner salt] | ≤ 0.06 | 8 | 0.59 |  |  | > 32 | 1 | > 32 | ≤ 0.06 | 1 |  |  |  |
| CC(C)N=C(NC(C)C)SCC(=O)N[C@@H]1C(=O)N2C(C(=O)O)=C(Sc3ccccc3CSC(=N)N)CS[C@H]12 [Cmpd 125, (7R)-7-[((N,N'-diisopropylisothiouronium)acetyl)amino]-3-(2-isothiouroniummethylphenylthio)-3-cephem-4-carboxylate, trifluoroacetic acid salt] | 0.5 | 8 | > 10 | 8 |  | > 32 | 0.25 | > 32 | 0.5 | 2 |  |  |  |
| CN[C@H](CC(C)C)C(=O)N[C@H]1C(=O)N[C@@H](CC(N)=O)C(=O)N[C@H]2C(=O)N[C@H]3C(=O)N[C@H](C(=O)N[C@H](C(=O)O)c4cc(O)cc(O)c4-c4cc3ccc4O)[C@H](O)c3ccc(c(Cl)c3)Oc3cc2cc(c3O[C@@H]2O[C@H](CO)[C@@H](O)[C@H](O)[C@H]2O[C@H]2C[C@](C)(N)[C@H](O)[C@H](C)O2)Oc2ccc(cc2Cl)[C@H]1O [Vancomycin, reference compound] |  |  |  |  |  |  |  |  |  |  |  | 1 (≈ 0.69 µM) | 2.81 |
